# Values joined by “and” are separate entries in the source; they are usually repeats but may differ in a detail not shown here. Identical values can stand only once. Like-named read-outs stand apart in the source and are kept apart here.
# Columns and labels:
# [1] = tested on: B. anthracis; type: cell-based; details: minimum inhibitory concentration
# [2] = tested on: E. faecalis; experiment: MIC broth microdilution, Alamar Blue; type: cell-based; details: minimum inhibitory concentration
# [3] = tested on: S. aureus 13709; experiment: MIC broth microdilution, Alamar Blue; type: cell-based; details: minimum inhibitory concentration
# [4] = Body and organ weights of infected, treated BALB/c mice; type: in vivo; details: for Body weight / Mean body weight of mice Post-treatment: 10 mg/kg i.p.; for Body weight: individual mice, Table 4; for Mean body weight of mice Post-treatment / Mean body weight of mice Pre-treatment: group mean; for Mean body weight of mice Pre-treatment: pre-treatment (baseline)
# Procedure: (§1) Compounds 47, 48, and 50 were then evaluated in animal studies with BALB/c mice with leishmaniasis. Compounds were delivered via i.p. injection at 10 mg/kg, with untreated, vehicle, and miltefosine controls as described in Table 2. […] Miltefosine, the only oral treatment currently available to treat leishmaniasis in humans, was also evaluated in the BALB/c mice for comparison purposes.
# [5] = tested on: leishmaniasis (LV82 PM infection), liver parasitemia; experiment: In vivo efficacy: liver parasitemia in BALB/c mice with leishmaniasis; details: 10 mg/kg i.p.; for LDU mean ± SD: group mean, n=4; for % Reduction (Average) in liver parasitemia: infected BALB/c mice; for # of amastigotes per 200 nuclei: liver; for # of amastigotes per 200 nuclei / LDU: individual mice; for LDU: total liver parasitemia
# Procedure: The following protocols were used to prepare the various treatments described in Table 2: • a. Miltefosine ([…] stock solution in sterile PBS): 7.5 mg miltefosine was weighed and put in a eppendorf tube, then 0.75 mL of sterile PBS was added. After vortexing, a clear solution was formed. Make 1 mg/mL solution daily by diluting 100 μL of 10 mg/mL miltefosine solution in 900 μL sterile PBS. • b. Vehicle control: 5% (v/v) DMSO, 50% (v/v) PEG 400, 10% (v/v) Ethanol, and 35% (v/v) distilled water. • c. Compound 47 (2 mg/mL solution of compound 47 in PEG 400/Ethanol vehicle): […]. Dilute the above solution 1:20 with PEG 400/EtOH/water daily. After vortexing and warming up at 37° C. for 30 min., a clear solution formed. • d. Compound 48 (2 mg/mL solution of compound 48 in PEG 400/Ethanol vehicle): 6.8 mg of compound 48 was dissolved in 0.17 mL of DMSO to make a 40 mg/mL stock solution. After vortexing, a yellowish-brown solution was formed. Diluted the above solution 1:20 with PEG 400/EtOH/water daily. After vortexing a clear solution formed. • e. Compound 50 (2 mg/mL solution of compound 50 in PEG 400/Ethanol vehicle): 8.4 mg of compound 50 was dissolved in 0.21 mL of DMSO to make a 40 mg/mL stock solution. After vortexing, a dark yellowish-brown solution was formed. Diluted the above solution 1:20 with PEG 400/EtOH/water. After vortexing a clear solution formed.
# as §1
# [6] = tested on: S. pyogenes; experiment: MIC broth microdilution, Alamar Blue; type: cell-based; details: minimum inhibitory concentration
# [7] = tested on: Leishmania donovani; experiment: Antileishmanial assay, Leishmania in infected macrophages (L. donovani); details: for Selectivity Index: IC50 for HepG2 cells/IC50 for Leishmania donovani; for IC50: Leishmania donovani, Macrophage
# [8] = tested on: C. albicans; experiment: MIC broth microdilution, Alamar Blue; type: cell-based; details: minimum inhibitory concentration
# [9] = tested on: HepG2 cells; experiment: Cytotoxicity against human liver (HepG2) cells, Alamar Blue; type: cell-based
# Procedure: Several of these analogues were also evaluated for cytotoxicity against human liver (HepG2) cells. Of particular interest was that compounds 47 and 48 were approximately an order of magnitude less cytotoxic as compared to compound 1.
# Adherent cell lines were maintained in Eagle's Minimal Essential Media (Sigma-Aldrich, St. Louis, Mo., USA) with 2 mM glutamine and Earle's Balanced Salt Solution (HyClone, Logan, Utah, USA) adjusted to contain 1.5 g/L sodium bicarbonate, 0.1 mM non-essential amino acids, 1 mM sodium pyruvate and 10% fetal calf serum. Fetal calf serum used in these assays was lot matched throughout. All cultures were maintained under a humidified 5% CO2 atmosphere at 37° C., had media refreshed twice weekly and were subcultured by trypsinization and resuspension at a ratio of 1:5 each week. Toxicity assays were conducted between passages 10-20. Target compound toxicity was measured by incubating the test compound with the cells for 4 hours, washing the cells and finally treating the cells with Alamar Blue. After 12-24 hours, the fluorescence of the reduced dye was measured. Fluorescence intensity as a function of test compound concentration was fit to the Fermi equation, using non-linear least squares regression analysis, to estimate IC50 values.
# [10] = tested on: P. aeruginosa; experiment: MIC broth microdilution, Alamar Blue; type: cell-based; details: minimum inhibitory concentration
# [11] = tested on: P. falciparum clone W2/Indochina; experiment: In vitro malaria assay, [3H]-hypoxanthine incorporation; type: cell-based; details: Plasmodium falciparum, W2, 72 h, read-out: IC50 Plasmodium
# Procedure: a. In vitro Parasite Culturing: P. falciparum clone W2/Indochina was grown in continuous culture using RPMI 1640 media containing 10% heat-inactivated type A+ human plasma, sodium bicarbonate (2.4 g/L), HEPES (5.94 g/L) and 4% washed human type A+ erythrocytes. Cultures were gassed with a 90% N2, 5% O2 and 5% CO2 mixture followed by incubation at 37° C. b. Assay Preparation: Test compounds at 5 mg/mL in DMSO were diluted 1:500 and then serially diluted in duplicate over 11 concentrations. P. falciparum cultures with >70% ring stage parasites were diluted to 0.5-0.7% parasitemia and 1.5% hematocrit in RPMI 1640 media. In 96-well plates a volume of 90 μl/well of parasitized erythrocytes was added on top of 10 μL/well of the test compound. A separate plate containing chloroquine, dihydroartemisinin and atovaquone was added to each set of assay plates as control drugs. A Beckman Coulter Biomek 3000 was used to dispense test compounds, control drugs and parasitized erythrocytes into the microtiter plates. Positive and negative controls were included in each plate. Positive controls consisted of parasitized erythrocytes and negative controls consisted of non-parasitized erythrocytes at 1.5% hematocrit in RPMI 1640 media. Assay plates were placed into a modulator incubator chamber and equilibrated with 90% N2, 5% O2 and 5% CO2 mixture then incubated at 37° C. for 48 hours. After 48 hours, approximately 0.05 μCi of [^3H]-hypoxanthine monohydrochloride was added to each well of the assay plates. Plates were put back into the modulator incubation chamber, gassed with the 90% N2, 5% O2 and 5% CO2 mixture then incubated at 37° C. for an additional 24 hours. After 72 hours total incubation time the plates were frozen at −80° C. until later processed for parasite growth determinations. c. Assay Plate Processing: Assay plates were harvested using a Perkin Elmer FilterMate Harvester. The incorporation of [^3H]-hypoxanthine into nucleic acid was measured using a Perkin Elmer Topcount NXT Microplate Scintillation & Luminescence Counter. d. Data Analysis: Data analysis was performed using a custom database manager (Dataspects, Inc). Nonlinear regression analysis was used to calculate EC50.
# [12] = tested on: B. subtilis; experiment: MIC broth microdilution, Alamar Blue; type: cell-based; details: minimum inhibitory concentration
# [13] = tested on: C. glabrata; experiment: MIC broth microdilution, Alamar Blue; type: cell-based; details: minimum inhibitory concentration
# [14] = tested on: Leishmania amazonensis; experiment: Antileishmanial assay, Leishmania in infected macrophages (L. amazonensis); details: Leishmania amazonensis
# [15] = read-out: IC50 Leishmania in infected macrophages
# [16] = HepG2, read-out: IC50 against the HepG2 cell line
# [17] = HepG2, read-out: IC50 mammalian HepG2 cells
Structure (SMILES),MIC B. anthracis [1],MIC E. faecalis [2],MIC S. aureus [3],MIC S. pyogenes [6],Selectivity Index [7],"IC50 [7, 15] [nM]",MIC C. albicans [8],"IC50 [9, 17] [nM]",MIC P. aeruginosa [10],IC50 [11] [µg/mL],MIC B. subtilis [12],MIC C. glabrata [13],other results
"C=C[C@@H](C#CC#C[C@@H](CCCCCCCCC)NC(=O)c1ccccc1)OC(C)=O [Compound 47, (3S,8R)-8-benzamidoheptadeca-1-en-4,6-diyn-3-yl acetate]",>1000,>1000,>1000,>1000,"14,000",35,>1000,486000 ± 14000,>1000,4.85,>1000,>1000,"Body weight [4]: 18.3 g (2×) and 19.5 g and 18.2 g; Mean body weight of mice Post-treatment [4]: 18.6 g; Mean body weight of mice Pre-treatment [4]: 19.2 g; LDU mean ± SD [5]: 2979.6; % Reduction (Average) in liver parasitemia [5]: 26.0%; % Reduction (Average) in liver parasitemia ([5]; listed as compound 47): 26%; # of amastigotes per 200 nuclei [5]: 596 and 543 and 595 and 582; LDU [5]: 2960.3 and 2834.7 and 2961.0 and 3162.3; IC50 [9, 16]: 486000 ± 14000 nM"
"C=C[C@H](O)C#CC#C[C@H](O)CCCCCCCCC [Compound 50, (3S,8R)-heptadeca-1-en-4,6-diyne-3,8-diol]",1000,16,16,8,2900,13,16,38000 ± 2000,4,0.271,2,8,"Body weight [4]: 15.7 g and 14.6 g and 14.1 g and 13.4 g; Mean body weight of mice Post-treatment [4]: 14.5 g; Mean body weight of mice Pre-treatment [4]: 16.3 g; LDU mean ± SD [5]: 2367.2; % Reduction (Average) in liver parasitemia [5]: 41.2%; % Reduction (Average) in liver parasitemia ([5]; listed as compound 50): 41%; # of amastigotes per 200 nuclei [5]: 628 and 557 and 643 and 612; LDU [5]: 2737.5 and 2143.9 and 2654.9 and 1932.7; IC50 ([7]; read-out: IC50 anti-Leishmanial): 13 nM; IC50 [9, 16]: 38000 ± 2000 nM"
"C=C[C@H](C#CC#C[C@H](O)CCCCCCCCC)OC(C)=O [Compound 2, (3R,8R)-8-hydroxyheptadeca-1-en-4,6-diyn-3-yl acetate]",,,,,,,,,,8.07,,,"anti-Leishmanial activity at 10 μM ([14]; 10 μM): no anti-Leishmanial activity; IC50 ([14]; Macrophage, read-out: IC50 Leishmania in infected macrophages): > 10000 nM"
"C=C[C@@H](C#CC#C[C@H](O)CCC)OC(C)=O [Compound 20, (3S,8R)-8-hydroxyundeca-1-en-4,6-diyn-3-yl acetate]",1000,1000,1000,250,290,197,250,57000 ± 2000,>1000,9.18,250,250,
"C=C[C@@H](C#CC#C[C@H](N)CCCCCCCCC)OC(C)=O [Compound 45, (3S,8R)-8-aminoheptadeca-1-en-4,6-diyn-3-yl acetate]",250,1000,1000,250,,,250,,>1000,,250,500,
"C=C[C@@H](C#CC#C[C@H](O)CCCCCCCCCCCCCCC)OC(C)=O (stereo in doubt) [Compound 44, (3S,8R)-8-hydroxytricosa-1-en-4,6-diyn-3-yl acetate]",>1000,>1000,>1000,>1000,,287,>1000,,>1000,2.14,>1000,>1000,
"C=C[C@@H](C#CC#C[C@@H](CCCCCCCCC)NS(C)(=O)=O)OC(C)=O [Compound 46, (3S,8R)-8-(methylsulfonamido)heptadeca-1-en-4,6-diyn-3-yl acetate]",>1000,>1000,>1000,8,530,55,>1000,29000 ± 1000,>1000,4.47,4,>1000,
"C=C[C@@H](C#CC#C[C@@H](CCCCCCCCC)OS(C)(=O)=O)OC(C)=O [Compound 49, (3S,8R)-8-((methylsulfonyl)oxy)heptadeca-1-en-4,6-diyn-3-yl acetate]",250,500,250,125,,61,>1000,,>1000,2.13,250,>1000,
